Patent US12325696B2, “Indazole derivative, preparation method therefor, and pharmaceutical application thereof” (JIANGSU HENGRUI MEDICINE CO., LTD., priority 2019, dated 2025)

Columns and labels:
[1] = target: estrogen receptor ERα wild-type (Homo sapiens (Human), UniProt P03372); experiment: Covalent modification of ERα wild-type LBD by high-resolution mass spectrometry; type: binding; details: after 24 hours; 2 μM protein, 10 μM compound, 4° C.
Description: (§1) The ligand binding domain (LBD, aa296-554) of estrogen receptor ERα wild-type and ERα Y537S mutant-type was expressed in E. coli and purified. 2 μM ERα wild-type or ERα Y537S mutant-type protein and 10 μM compound were added to a buffer solution containing 50 mM Tris-HCl, pH7.5, 150 mM NaCl, 1 mM TCEP and 5% glycerol and mixed well. The solution was incubated at 4° C. for 24 hours, followed by high-resolution mass spectrometry (Agilent Technologies, Agilent Q-tof 6530) assay. Alternatively, 1 μM ERα wild-type or ERα Y537S mutant-type protein and 3 μM compound were added to a buffer solution containing 50 mM Tris-HCl, pH7.5, 150 mM NaCl, 1 mM TCEP and 5% glycerol and mixed well. The solution was incubated at 37° C. for 15 minutes, followed by high-resolution mass spectrometry assay. In the mass spectrometry assay results, the peak whose molecular weight is the sum of the molecular weight of the protein and compound is the product of covalent modification. The percentage of covalent modification is obtained by calculating the ratio of […] to total protein.

[2] = test system: estrogen receptor reporter gene; experiment: Inhibition of estrogen receptor reporter gene activity (ERE-luc luciferase) in MCF7/ERE-luc cells; type: cell-based; details: Homo sapiens, 0.1 nM β-estradiol, 20 hours, read-out: IC50 of inhibitory activity on the activity of the estrogen receptor reporter gene
Outline: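 MCF7 cells stably carrying ERE-driven luciferase, in charcoal-stripped serum medium, were stimulated with 0.1 nM β-estradiol plus compound (nine 10-fold dilutions from 10 μM) for 20 h at 37° C. ONE-Glo luminescence was read, and IC50 was fitted from signal versus log concentration.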

[3] = test system: MCF7 D538G; experiment: Inhibition of proliferation of MCF7 cell expressing ERα D538G mutant; type: cell-based; details: Homo sapiens, 144 hours; for Emax: read-out: Maximum inhibition
Outline: (§2)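 MCF7 cells stably expressing lentiviral ERα Y537S or D538G mutants, seeded 3,000 cells/well, then exposed in 2% FBS MEM to nine 4-fold dilutions from 100 nM for 144 h at 37° C. Viability read by CellTiter-Glo luminescence; IC50 fitted from concentration-response.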

[4] = target: estrogen receptor ERα Y537S mutant-type (Homo sapiens (Human), UniProt P03372, Y537S); experiment: Covalent modification of ERα Y537S mutant-type LBD by high-resolution mass spectrometry; type: binding; details: after 24 hours; 2 μM protein, 10 μM compound, 4° C.
Sequence of estrogen receptor ERα Y537S mutant-type (P03372 296-554 Y537S): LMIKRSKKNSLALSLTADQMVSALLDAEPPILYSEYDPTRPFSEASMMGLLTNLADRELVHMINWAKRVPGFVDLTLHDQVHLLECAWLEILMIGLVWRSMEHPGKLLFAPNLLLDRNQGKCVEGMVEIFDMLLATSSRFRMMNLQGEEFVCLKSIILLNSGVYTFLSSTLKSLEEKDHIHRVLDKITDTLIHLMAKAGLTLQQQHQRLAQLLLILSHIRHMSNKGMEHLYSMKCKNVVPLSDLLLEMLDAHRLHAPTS
Description: as §1

[5] = test system: MCF7 ERαY537S; experiment: Inhibition of proliferation of MCF7 cell expressing ERα Y537S mutant; type: cell-based; details: Homo sapiens, 144 hours; for Emax: read-out: Maximum inhibition
Outline: as §2

[6] = test system: MCF7 cell; experiment: Inhibition of proliferation of MCF7 cell (CellTiter-Glo, 144 hours); type: cell-based; details: Homo sapiens; for IC50: MCF7, CellTiter-Glo, read-out: IC50 of the inhibitory effect on the proliferation of MCF7 cell; for Emax: MCF7 cell proliferation, read-out: Maximum inhibition
Outline: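 Seeded overnight, MCF7 cells were treated in MEM with 2% FBS with nine 4-fold dilutions from 100 nM (0.5% DMSO blank). Incubation 144 h at 37° C, 5% CO2. CellTiter-Glo luminescence read; IC50 from signal versus log concentration.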

[7] = target: Nav1.5 ion channel (Homo sapiens (Human), UniProt Q14524); experiment: Manual patch clamp inhibition of Nav1.5 current in HEK293 cell; type: cell-based; details: whole-cell patch clamp, read-out: IC50 on inhibiting the Nav1.5 channel activity
Sequence of Nav1.5 ion channel (Q14524 whole entry): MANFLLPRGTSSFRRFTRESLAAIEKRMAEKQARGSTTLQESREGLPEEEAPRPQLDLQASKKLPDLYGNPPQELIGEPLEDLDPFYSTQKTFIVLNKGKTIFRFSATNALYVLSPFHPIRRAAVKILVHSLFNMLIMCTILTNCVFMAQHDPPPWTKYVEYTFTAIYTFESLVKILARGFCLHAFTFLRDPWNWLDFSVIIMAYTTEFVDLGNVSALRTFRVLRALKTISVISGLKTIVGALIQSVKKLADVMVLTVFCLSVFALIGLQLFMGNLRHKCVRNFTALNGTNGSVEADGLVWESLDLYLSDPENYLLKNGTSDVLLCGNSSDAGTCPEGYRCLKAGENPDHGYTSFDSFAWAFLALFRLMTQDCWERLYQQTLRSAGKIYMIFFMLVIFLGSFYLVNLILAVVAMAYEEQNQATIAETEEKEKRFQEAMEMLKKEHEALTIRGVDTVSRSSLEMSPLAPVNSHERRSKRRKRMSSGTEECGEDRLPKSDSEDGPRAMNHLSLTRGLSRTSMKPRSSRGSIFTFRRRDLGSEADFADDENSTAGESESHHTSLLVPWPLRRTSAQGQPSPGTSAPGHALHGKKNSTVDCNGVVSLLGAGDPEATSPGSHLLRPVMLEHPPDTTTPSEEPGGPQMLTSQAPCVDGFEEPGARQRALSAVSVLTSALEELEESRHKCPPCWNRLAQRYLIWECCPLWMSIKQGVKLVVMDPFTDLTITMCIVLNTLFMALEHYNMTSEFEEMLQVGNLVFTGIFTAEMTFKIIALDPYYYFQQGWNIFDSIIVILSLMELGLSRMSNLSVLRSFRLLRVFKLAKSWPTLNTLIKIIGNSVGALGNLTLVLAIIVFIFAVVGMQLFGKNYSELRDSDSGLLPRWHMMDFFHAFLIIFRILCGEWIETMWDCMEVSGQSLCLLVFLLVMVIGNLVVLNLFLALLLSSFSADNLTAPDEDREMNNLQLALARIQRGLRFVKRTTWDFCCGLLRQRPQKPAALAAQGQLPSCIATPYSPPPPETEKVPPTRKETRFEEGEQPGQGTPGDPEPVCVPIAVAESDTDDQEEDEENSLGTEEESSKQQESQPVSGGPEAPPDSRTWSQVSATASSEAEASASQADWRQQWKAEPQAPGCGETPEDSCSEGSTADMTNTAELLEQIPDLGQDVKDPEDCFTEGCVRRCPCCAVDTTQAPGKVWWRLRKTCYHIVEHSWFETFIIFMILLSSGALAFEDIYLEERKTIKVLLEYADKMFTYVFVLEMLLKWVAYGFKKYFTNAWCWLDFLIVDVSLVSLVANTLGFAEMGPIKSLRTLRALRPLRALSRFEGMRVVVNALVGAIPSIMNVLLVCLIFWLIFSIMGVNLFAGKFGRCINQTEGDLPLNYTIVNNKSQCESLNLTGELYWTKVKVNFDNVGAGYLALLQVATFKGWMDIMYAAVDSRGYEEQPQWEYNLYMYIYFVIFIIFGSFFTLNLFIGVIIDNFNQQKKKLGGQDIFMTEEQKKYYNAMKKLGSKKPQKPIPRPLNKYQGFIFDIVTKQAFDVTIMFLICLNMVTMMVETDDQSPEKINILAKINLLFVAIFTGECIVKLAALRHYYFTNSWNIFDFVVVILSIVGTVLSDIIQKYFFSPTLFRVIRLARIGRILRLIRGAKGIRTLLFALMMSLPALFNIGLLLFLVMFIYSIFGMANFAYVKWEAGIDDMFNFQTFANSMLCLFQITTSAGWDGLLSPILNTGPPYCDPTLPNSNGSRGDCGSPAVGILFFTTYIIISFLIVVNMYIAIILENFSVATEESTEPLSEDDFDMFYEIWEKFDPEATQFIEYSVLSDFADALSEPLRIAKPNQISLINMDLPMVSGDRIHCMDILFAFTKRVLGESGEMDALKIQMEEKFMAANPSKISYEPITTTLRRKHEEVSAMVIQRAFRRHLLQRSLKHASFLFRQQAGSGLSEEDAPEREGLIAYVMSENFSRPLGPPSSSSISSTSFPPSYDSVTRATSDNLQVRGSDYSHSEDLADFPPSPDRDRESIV
Description: The purpose of the experiment is to investigate the effect of the compounds on Nav1.5 ion channel in an […] experiment. Nav1.5 ion channel is stably expressed on HEK293 cell. After the Nav1.5 current becomes stable, the Nav1.5 currents before and after the administration of the compound are compared so as to obtain the effect of the compound on the Nav1.5 ion channel.
Extracellular fluid: NaCl, 137 mM; KCl, 4 mM; CaCl2), 1.8 mM; MgCl2, 1 mM; HEPES, 10; glucose, 10 mM; pH 7.4 (NaOH titration).
Intracellular fluid: aspartic acid, 140 mM; MgCl2, 2 mM; EGTA, 11 mM; HEPES, 10 mM; pH 7.2 (CsOH titration).
The test compound was dissolved in dimethyl sulfoxide (DMSO) at a stock concentration of 9 mM. The stock solution of the test compound was dissolved in the extracellular fluid on the day of the test and formulated into the required concentration.
1) The compound was formulated into solutions with specified concentrations. The solutions were added to the pipelines respectively in order from high to low concentration, and the pipelines were marked.
2) The cell was transferred to the perfusion tank, and perfused with the extracellular fluid. The intracellular fluid was stored in small batches in a −80° C. refrigerator, and melted on the day of the experiment. The electrode was pulled with PC-10 (Narishige, Japan). Recording was carried out with the whole-cell patch clamp, and the noise was filtered at one-fifth of the sampling frequency.
3) All compounds were perfused with a perfusion system that uses its own gravity. Each concentration was tested in at least two cells. After the current stabilized (or after 5 minutes), the blocking effect of the compound was calculated by comparing the changes in the current before and after the administration of the compound.
The cell was clamped at −80 mV. The cell was depolarized to Vhalf with a square wave lasting 8 milliseconds, hyperpolarized to −120 mV with a square wave lasting 20 milliseconds, and depolarized to −10 mV with a square wave lasting 20 milliseconds to obtain the Nav1.5 current. This procedure was repeated every 15 seconds. The maximum current caused by the −10 mV square wave was measured. After the current became stable, the test compound was perfused. After the response became stable, the blocking intensity was calculated.
The data was stored in the computer system for analysis. Data collection and analysis were carried out by pCLAMP 10 (Molecular Devices, Union City, CA). Stable current means that the absolute average value of the peak current of four consecutive scans exceeds 200 pA and the CV value is less than 10%, or the average value of the peak current of four consecutive scans is between 200 pA and 50 pA and the CV value is less than 30%. The average value of the last four current peaks after the current stabilized was used to calculate the effect of the compound at the concentration.

Sequence of estrogen receptor ERα wild-type (P03372 296-554): as the sequence (P03372 296-554 Y537S) above, with S242Y counted along it

| Covalent modification effect on the estrogen receptor ERα wild-type [1] | IC50 [2] | IC50 [3] | Covalent modification effect on the estrogen receptor ERα Y537S mutant-type [4] | IC50 [5] | IC50 [6] | SMILES | Emax [3] | Emax [5] | Emax [6] | IC50 [7] |
| --- | --- | --- | --- | --- | --- | --- | --- | --- | --- | --- |
| 94% | 4 nM | 2 nM | 97% | 2 nM | 0.4 nM | CN(C)C(=O)/C=C/CN1CCC[C@@H](Oc2ccc(/C(=C(/CC(F)(F)F)c3ccc(F)cc3)c3ccc4[nH]nc(F)c4c3)cn2)C1 [Example 19, (E)-N,N-Dimethyl-4-((R)-3-((5-((Z)-4,4,4-trifluoro-1-(3-fluoro-1H-indazol-5-yl)-2-(4-fluorophenyl)but-1-en-1-yl)pyridin-2-yl)oxy)piperidin-1-yl)but-2-enamide] | 97% | 106% | 97% | – |
| 95% | 24 nM | 15 nM | 100% | 15 nM | 4 nM | CN(C)C(=O)/C=C/CN1CCC[C@@H](Oc2ccc(/C(=C(/CC(F)(F)F)c3ccc(C(F)(F)F)cc3)c3ccc4[nH]nc(F)c4c3)cn2)C1 [Example 22, (E)-N,N-Dimethyl-4-((R)-3-((5-((Z)-4,4,4-trifluoro-1-(3-fluoro-1H-indazol-5-yl)-2-(4-(trifluoromethyl)phenyl)but-1-en-1-yl)pyridin-2-yl)oxy)piperidin-1-yl)but-2-enamide] | 93% | 97% | 103% | – |
| 95% | 13 nM | 7 nM | 99% | 5 nM | 1 nM | CN(C)C(=O)/C=C/CN1CCC[C@@H](Oc2ccc(/C(=C(/CC(F)(F)F)c3ccc(S(C)(=O)=O)cc3)c3ccc4[nH]nc(F)c4c3)cn2)C1 [Example 23, (E)-N,N-Dimethyl-4-((R)-3-((5-((Z)-4,4,4-trifluoro-1-(3-fluoro-1H-indazol-5-yl)-2-(4-(methylsulfonyl)phenyl)but-1-en-1-yl)pyridin-2-yl)oxy)piperidin-1-yl)but-2-enamide] | 101% | 94% | 97% | – |
| 90% | 9 nM | 8 nM | 99% | 8 nM | 1 nM | CN(C)C(=O)/C=C/CN1CCC[C@@H](Oc2ccc(/C(=C(/CC(F)(F)F)c3ccc(C#N)cc3)c3ccc4[nH]nc(F)c4c3)cn2)C1 [Example 24, (E)-4-((R)-3-((5-((Z)-2-(4-Cyanophenyl)-4,4,4-trifluoro-1-(3-fluoro-1H-indazol-5-yl)but-1-en-1-yl)pyridin-2-yl)oxy)piperidin-1-yl)-N,N-dimethylbut-2-enamide] | 94% | 102% | 98% | – |
| 80% | 6 nM | 2 nM | 83% | 3 nM | 0.7 nM | CN(C)C(=O)/C=C/CN1CCC[C@@H](Nc2ccc(/C(=C(/CC(F)(F)F)c3ccccc3)c3ccc4[nH]nc(F)c4c3)cn2)C1 [Example 31, (E)-N,N-Dimethyl-4-((R)-3-((5-((Z)-4,4,4-trifluoro-1-(3-fluoro-1H-indazol-5-yl)-2-phenylbut-1-en-1-yl)pyridin-2-yl)amino)piperidin-1-yl)but-2-enamide] | 101% | 105% | 97% | – |
| 94% | 28 nM | 11 nM | 95% | 19 nM | 5 nM | O=C(/C=C/CN1CCC[C@@H](Nc2ccc(/C(=C(/CC(F)(F)F)c3ccccc3)c3ccc4[nH]nc(F)c4c3)cn2)C1)N1CCOCC1 [Example 32, (E)-1-Morpholino-4-((R)-3-((5-((Z)-4,4,4-trifluoro-1-(3-fluoro-1H-indazol-5-yl)-2-phenylbut-1-en-1-yl)pyridin-2-yl)amino)piperidin-1-yl)but-2-en-1-one] | 95% | 84% | 100% | – |
| 95% | 5 nM | 2 nM | 96% | 4 nM | 0.8 nM | O=C(/C=C/CN[C@H]1CCCN(c2ccc(/C(=C(/CC(F)(F)F)c3ccccc3)c3ccc4[nH]nc(F)c4c3)cn2)C1)N1CCOCC1 [Example 38, (E)-1-Morpholino-4-(((S)-1-(5-((Z)-4,4,4-trifluoro-1-(3-fluoro-1H-indazol-5-yl)-2-phenylbut-1-en-1-yl)pyridin-2-yl)piperidin-3-yl)amino)but-2-en-1-one] | 108% | 102% | 96% | – |
| – | – | – | – | – | – | O=C(/C=C/CNCCOc1ccc(/C(=C(/CC(F)(F)F)c2ccccc2)c2ccc3[nH]nc(F)c3c2)cn1)N1CCOCC1 [Example 43, (E)-1-Morpholino-4-((2-((5-((Z)-4,4,4-trifluoro-1-(3-fluoro-1H-indazol-5-yl)-2-phenylbut-1-en-1-yl)pyridin-2-yl)oxy)ethyl)amino)but-2-en-1-one, reference compound] | – | – | – | 2700 nM |
